{
  "source": "patent EP0182984B1",
  "about": "“Use of fully synthetic alpha-human atrial natriuretic peptide (alpha-hANap)” (PHARMA BISSENDORF PEPTIDE GMBH, priority 1984, dated 1992)",
  "conditions": "in vivo",
  "excerpt": "An LD₅₀ could so far not be determined.",
  "data": [
    {"smiles": "CC[C@H](C)[C@@H]1NC(=O)[C@H](CCCNC(=N)N)NC(=O)[C@H](CC(=O)O)NC(=O)[C@H](CCSC)NC(=O)[C@H](CCCNC(=N)N)NC(=O)CNC(=O)CNC(=O)[C@H](Cc2ccccc2)NC(=O)[C@@H](NC(=O)[C@H](CO)NC(=O)[C@H](CO)NC(=O)[C@H](CCCNC(=N)N)NC(=O)[C@H](CCCNC(=N)N)NC(=O)[C@H](CC(C)C)NC(=O)[C@@H](N)CO)CSSC[C@@H](C(=O)N[C@@H](CC(N)=O)C(=O)N[C@@H](CO)C(=O)N[C@@H](Cc2ccccc2)C(=O)N[C@@H](CCCNC(=N)N)C(=O)N[C@@H](Cc2ccc(O)cc2)C(=O)O)NC(=O)CNC(=O)[C@H](CC(C)C)NC(=O)CNC(=O)[C@H](CO)NC(=O)[C@H](CCC(N)=O)NC(=O)[C@H](C)NC(=O)CNC1=O", "note": "[alpha-hANaP, alpha-human atrial natriuretic peptide]", "values": [
      {"measurement": "side-effects to the heart and circulation system, to the bronchial system, to the liver and renal functions, to the gonads, and to the central nervous system", "value": "No serious side-effects"}
    ]}
  ]
}
